Data as given in patent publication US10323027B2, “2,3-dihydro-4H-1,3-benzoxazin-4-one derivatives as modulators of cholinergic muscarinic M1 receptor” (Takeda Pharmaceutical Company Limited, priority 2015, dated 2019).
Counter-ions that a name gives are not always drawn.

Target: T1, human M1 receptor (hCHRM1) (Homo sapiens, UniProt P11229)
T1 construct: expressed in transfected cells
T1 sequence (P11229 1-460): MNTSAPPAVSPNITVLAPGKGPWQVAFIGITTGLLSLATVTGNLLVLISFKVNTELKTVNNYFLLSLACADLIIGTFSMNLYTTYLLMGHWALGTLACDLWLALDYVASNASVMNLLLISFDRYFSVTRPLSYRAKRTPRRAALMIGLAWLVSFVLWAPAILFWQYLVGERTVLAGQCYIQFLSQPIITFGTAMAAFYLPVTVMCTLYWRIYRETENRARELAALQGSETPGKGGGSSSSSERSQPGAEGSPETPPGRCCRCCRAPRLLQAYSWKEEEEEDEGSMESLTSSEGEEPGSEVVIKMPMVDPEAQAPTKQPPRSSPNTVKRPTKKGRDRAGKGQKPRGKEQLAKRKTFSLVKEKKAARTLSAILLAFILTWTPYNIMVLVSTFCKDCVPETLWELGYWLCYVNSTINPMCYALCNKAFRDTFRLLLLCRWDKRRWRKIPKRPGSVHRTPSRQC
Test: Measurement of M1 receptor positive allosteric modulator (M1PAM) activity, Ca2+ fluorescence by FLIPRtetra (Experimental Example 1)
Type: cell-based
Conditions: for activity (%) at 10 μM: 10 μM test compound, 100% = acetylcholine 1 μM, 0% = DMSO; for EC50: inflection point of concentration-dependent curve, in presence of acetylcholine at EC20 (0.8-1.0 nM), CHO-K1 cells expressing hCHRM1, read-out: IP value
Experimental: Measurement of M1 Receptor Positive Allosteric Modulator (M1PAM) Activity
The activity of a test compound in the presence of acetylcholine at EC20 concentration (final concentration 0.8-1.0 nM), which affords an action corresponding to about 20% of the maximum activity, was measured as PAM activity. The method is as follows. CHO-K1 cells stably expressing a human M1 receptor (hCHRM1) were plated on a 384-well black clear bottom plate (BD Falcon) at 5,000 cells/well, and cultured in an incubator at 37° C., 5% CO2 for 1 day. The medium in the cell plate was removed, and a dye solution (prepared by adding Recording medium (DOJINDO LABORATORIES) to a final concentration of 1×concentration, Fluo-4 AM (DOJINDO LABORATORIES) to a final concentration of 2.5 μg/mL, Pluronic F127 (DOJINDO LABORATORIES) to a final concentration of 0.08%, and probenecid (DOJINDO LABORATORIES) to a final concentration of 1.25 mM to assay buffer (HBSS (Invitrogen), 20 mM HEPES (Invitrogen), 0.1% BSA (Wako Pure Chemical Industries, Ltd.))) was added at 30 μL/well. The cells were left standing in the incubator at 37° C., 5% CO2 for 30 min, and further left standing at room temperature for 30 min. A test compound prepared by diluting with assay buffer containing 3.2-4.0 nM acetylcholine was added at 10 μL/well, and the fluorescence was measured by FLIPRtetra (Molecular Devices) for 1 min every 1 second. With the definition that the amount of change in the fluorescence on addition of acetylcholine (final concentration 1 μM) is 100% and that on addition of DMSO instead of a test compound is 0%, the activity (%) of the test compound was calculated, and the inflection point in the concentration-dependent curve of the test compound was calculated as IP values.

With `Cc1c(Cc2ccc(-c3ccn(C)n3)cc2)cc2c(c1F)OCN([C@H]1CCC[C@@H]1O)C2=O` [Example 9, 8-fluoro-3-((1S,2S)-2-hydroxycyclopentyl)-7-methyl-6-(4-(1-methyl-1H-pyrazol-3-yl)benzyl)-2,3-dihydro-4H-1,3-benzoxazin-4-one] the “activity (%) at 10 μM” value was 98% and the EC50 was 4.6 nM.
In the case of `Cc1c(Cc2ccc(Cl)nc2)cc2c(c1C)OCN([C@H]1COCC[C@@H]1O)C2=O` [Example 10, 1,5-anhydro-2-(6-((6-chloropyridin-3-yl)methyl)-7,8-dimethyl-4-oxo-2H-1,3-benzoxazin-3(4H)-yl)-2,4-dideoxy-L-threo-pentitol], the “activity (%) at 10 μM” value is reported as 109% and the EC50 is reported as 9.1 nM.
In the case of `Cc1ccc(Cc2cc3c(c(C)c2C)OCN([C@H]2CCC[C@@H]2O)C3=O)cn1` [Example 11, 3-((1S,2S)-2-hydroxycyclopentyl)-7,8-dimethyl-6-((6-methylpyridin-3-yl)methyl)-2,3-dihydro-4H-1,3-benzoxazin-4-one], the “activity (%) at 10 μM” value is reported as 95% and the EC50 is reported as 8.5 nM.
In the case of `Cc1c(Cc2ccc(C#N)cc2)cc2c(c1F)OCN([C@H]1CCC[C@@H]1O)C2=O` [Example 12, 4-((8-fluoro-3-((1S,2S)-2-hydroxycyclopentyl)-7-methyl-4-oxo-3,4-dihydro-2H-1,3-benzoxazin-6-yl)methyl)benzonitrile], the “activity (%) at 10 μM” value is reported as 89% and the EC50 is reported as 15 nM.
With `Cc1cc2c(cc1Cc1ccc(-n3cccn3)nc1)C(=O)N([C@H]1CCC[C@@H]1O)CO2` [Example 14, 3-((1S,2S)-2-hydroxycyclopentyl)-7-methyl-6-((6-(1H-pyrazol-1-yl)pyridin-3-yl)methyl)-2,3-dihydro-4H-1,3-benzoxazin-4-one] the “activity (%) at 10 μM” value was 106% and the EC50 was 15 nM.
With `Cc1c(Cc2ccc(Cl)nc2)cc2c(c1F)OCN([C@H]1CCC[C@@H]1O)C2=O` [Example 16, 6-((6-chloropyridin-3-yl)methyl)-8-fluoro-3-((1S,2S)-2-hydroxycyclopentyl)-7-methyl-2,3-dihydro-4H-1,3-benzoxazin-4-one] the “activity (%) at 10 μM” value was 102% and the EC50 was 20 nM.
`COc1ccc(Cc2cc3c(c(F)c2C)OCN([C@H]2CCC[C@@H]2O)C3=O)cn1` [Example 18, 8-fluoro-3-((1S,2S)-2-hydroxycyclopentyl)-6-((6-methoxypyridin-3-yl)methyl)-7-methyl-2,3-dihydro-4H-1,3-benzoxazin-4-one] was tested, and the “activity (%) at 10 μM” value was 107% and the EC50 was 37 nM.
For `Cc1c(Cc2ccc(Cl)nc2)cc2c(c1F)OCN([C@H]1COCC[C@@H]1O)C2=O` [Example 19, 1,5-anhydro-2-(6-((6-chloropyridin-3-yl)methyl)-8-fluoro-7-methyl-4-oxo-2H-1,3-benzoxazin-3(4H)-yl)-2,4-dideoxy-L-threo-pentitol], the “activity (%) at 10 μM” value was 105% and the EC50 was 45 nM.
`Cc1ccc(Cc2cc3c(c(F)c2C)OCN([C@H]2CCC[C@@H]2O)C3=O)cn1` [Example 20, 8-fluoro-3-((1S,2S)-2-hydroxycyclopentyl)-7-methyl-6-((6-methylpyridin-3-yl)methyl)-2,3-dihydro-4H-1,3-benzoxazin-4-one] was tested, and the “activity (%) at 10 μM” value was 85% and the EC50 was 24 nM.
In the case of `O=C1c2cc(CN3CCC(F)(F)CC3)c3ccccc3c2OCN1[C@H]1CCC[C@@H]1O` [Example 21, 6-((4,4-difluoropiperidin-1-yl)methyl)-3-((1S,2S)-2-hydroxycyclopentyl)-2,3-dihydro-4H-naphtho[2,1-e][1,3]oxazin-4-one], the “activity (%) at 10 μM” value is reported as 95% and the EC50 is reported as 16 nM.
`Cc1c(Cc2ccc(-c3ccn(C)n3)nc2)cc2c(c1F)OCN([C@H]1CCC[C@@H]1O)C2=O` [Example 22, 8-fluoro-3-((1S,2S)-2-hydroxycyclopentyl)-7-methyl-6-((6-(1-methyl-1H-pyrazol-3-yl)pyridin-3-yl)methyl)-2,3-dihydro-4H-1,3-benzoxazin-4-one] was tested, and the “activity (%) at 10 μM” value was 105% and the EC50 was 0.69 nM.
For `Cc1c(Cc2ccc(-n3cccn3)cc2)cc2c(c1C)OCN([C@H]1COCC[C@@H]1O)C2=O` [Example 23, 3-[(3S,4S)-4-hydroxytetrahydro-2H-pyran-3-yl]-7,8-dimethyl-6-[4-(1H-pyrazol-1-yl)benzyl]-2,3-dihydro-4H-1,3-benzoxazin-4-one], the “activity (%) at 10 μM” value was 114% and the EC50 was 2 nM.
For `Cc1ccc(Cc2cc3c(c(Cl)c2C)OCN([C@H]2CCC[C@@H]2O)C3=O)cn1` [Example 25, 8-chloro-3-((1S,2S)-2-hydroxycyclopentyl)-7-methyl-6-((6-methylpyridin-3-yl)methyl)-2,3-dihydro-4H-1,3-benzoxazin-4-one], the “activity (%) at 10 μM” value was 101% and the EC50 was 4.2 nM.
With `Cc1ccc(Cc2cc3c(c(C)c2C)OCN([C@H]2CCC[C@@H]2O)C3=O)cn1` [Example 26, 3-((1S,2S)-2-hydroxycyclopentyl)-7,8-dimethyl-6-((6-methylpyridin-3-yl)methyl)-2,3-dihydro-4H-1,3-benzoxazin-4-one monohydrochloride] the “activity (%) at 10 μM” value (monohydrochloride) was 119% and the EC50 was 5.4 nM.
`Cc1ccc(Cc2cc3c(c(F)c2C)OCN([C@H]2CCCC[C@@H]2O)C3=O)cn1` [Example 27, 8-fluoro-3-((1S,2S)-2-hydroxycyclohexyl)-7-methyl-6-((6-methylpyridin-3-yl)methyl)-2,3-dihydro-4H-1,3-benzoxazin-4-one] was tested, and the “activity (%) at 10 μM” value was 105% and the EC50 was 6 nM.
In the case of `COc1ccc(Cc2cc3c(c(C)c2C)OCN([C@H]2COCC[C@@H]2O)C3=O)cn1` [Example 29, 3-((3S,4S)-4-hydroxytetrahydro-2H-pyran-3-yl)-6-((6-methoxypyridin-3-yl)methyl)-7,8-dimethyl-2,3-dihydro-4H-1,3-benzoxazin-4-one], the “activity (%) at 10 μM” value is reported as 106% and the EC50 is reported as 14 nM.
With `Cc1ccc(Cc2cc3c(c(F)c2C)OCN([C@H]2COCC[C@@H]2O)C3=O)cn1` [Example 32, 1,5-anhydro-2,4-dideoxy-2-(8-fluoro-7-methyl-6-((6-methylpyridin-3-yl)methyl)-4-oxo-2H-1,3-benzoxazin-3(4H)-yl)-L-threo-pentitol] the “activity (%) at 10 μM” value was 108% and the EC50 was 37 nM.
In the case of `Cc1cc2c(cc1Cc1ccc(Cl)nc1)C(=O)N([C@H]1CCC[C@@H]1O)CO2` [Example 34, 6-((6-chloropyridin-3-yl)methyl)-3-((1S,2S)-2-hydroxycyclopentyl)-7-methyl-2,3-dihydro-4H-1,3-benzoxazin-4-one], the “activity (%) at 10 μM” value is reported as 96% and the EC50 is reported as 53 nM.
With `Cc1cc2c(cc1Cc1ccc(-n3cccn3)cc1)C(=O)N([C@H]1CCC[C@@H]1O)CO2` [Example 35, 3-((1S,2S)-2-hydroxycyclopentyl)-7-methyl-6-(4-(1H-pyrazol-1-yl)benzyl)-2,3-dihydro-4H-1,3-benzoxazin-4-one] the “activity (%) at 10 μM” value was 109% and the EC50 was 5.8 nM.
`Cc1c(Cc2ccc(-c3ccn(C)n3)nc2)cc2c(c1C)OCN([C@H]1COCC[C@@H]1O)C2=O` [Example 37, 1,5-anhydro-2,4-dideoxy-2-(7,8-dimethyl-6-((6-(1-methyl-1H-pyrazol-3-yl)pyridin-3-yl)methyl)-4-oxo-2H-1,3-benzoxazin-3(4H)-yl)-L-threo-pentitol] was tested, and the “activity (%) at 10 μM” value was 109% and the EC50 was 1.2 nM.
For `CCc1ccc(Cc2cc3c(c4ccccc24)OCN([C@H]2COCC[C@@H]2O)C3=O)cn1` [Example 38, 1,5-anhydro-2,4-dideoxy-2-(6-((6-ethylpyridin-3-yl)methyl)-4-oxo-2H-naphtho[2,1-e][1,3]oxazin-3(4H)-yl)-L-threo-pentitol], the “activity (%) at 10 μM” value was 99% and the EC50 was 1.5 nM.
With `Cc1ccc(Cc2cc3c(c4ccccc24)OCN([C@H]2CCC[C@@H]2O)C3=O)cn1` [Example 40, 3-((1S,2S)-2-hydroxycyclopentyl)-6-((6-methylpyridin-3-yl)methyl)-2,3-dihydro-4H-naphtho[2,1-e][1,3]oxazin-4-one] the “activity (%) at 10 μM” value was 98% and the EC50 was 1.6 nM.
In the case of `C=Cc1ccc(Cc2cc3c(c4ccccc24)OCN([C@H]2COCC[C@@H]2O)C3=O)cn1` [Example 42, 1,5-anhydro-2,4-dideoxy-2-(4-oxo-6-((6-vinylpyridin-3-yl)methyl)-2H-naphtho[2,1-e][1,3]oxazin-3(4H)-yl)-L-threo-pentitol], the “activity (%) at 10 μM” value is reported as 124% and the EC50 is reported as 2 nM.
